Values of other authors as cited in patent publication US20050026902A1, “Methods and compositions for the treatment or prevention of human immunodeficiency virus and related conditions using cyclooxygenase-2 selective inhibitors and antiviral agents” (priority 2003, published 2005).
Like-named read-outs stand apart in the source and are kept apart here.

Legend:
[1] = human, in vivo, po
[2] = human, in vivo, po; remark: listed apart in the source
[3] = human, in vivo
[4] = system: RT-SHIV; details: in vitro tests
[5] = biological target: HIV-1 RT from the HxB2 clone (RT-SHIV) (Human immunodeficiency virus type 1 group M subtype B, UniProt P04585); details: in vitro tests

SMILES | Food Effect [1] | Food Effect [2] | Food Effect [3] | further results
Nc1nc(NC2CC2)c2ncn([C@H]3C=C[C@@H](CO)C3)c2n1 [Abacavir] | None |  |  | 
CC(C)CN(C[C@@H](O)[C@H](Cc1ccccc1)NC(=O)O[C@H]1CCOC1)S(=O)(=O)c1ccc(N)cc1 [Amprenavir] |  | Avoid taking |  | 
CC(C)Nc1cccnc1N1CCN(C(=O)c2cc3cc(NS(C)(=O)=O)ccc3[nH]2)CC1 [Delavirdine] |  |  | None | 
O=C1Nc2ccc(Cl)cc2[C@@](C#CC2CC2)(C(F)(F)F)O1 [Efavirenz] |  |  | Avoid taking | 
Cc1c(O)cccc1C(=O)N[C@@H](CSc1ccccc1)[C@H](O)CN1C[C@H]2CCCC[C@H]2C[C@H]1C(=O)NC(C)(C)C [Nelfinavir, nelfinavir] |  | Take with food if possible |  | 
Cc1ccnc2c1NC(=O)c1cccnc1N2C1CC1 [Nevirapine, nevirapine] |  |  | None | inhibition of replication of RT-SHIV [4]: could inhibit; inhibition of the RT activity of RT-SHIV [5]: could inhibit
CC(C)c1nc(CN(C)C(=O)N[C@H](C(=O)N[C@@H](Cc2ccccc2)C[C@H](O)[C@H](Cc2ccccc2)NC(=O)OCc2cncs2)C(C)C)cs1 [Ritonavir, ritonavir] |  | Take with food if possible |  | 
Cc1cn([C@H]2C=C[C@@H](CO)O2)c(=O)[nH]c1=O [Stavudine] | None |  |  | 
Nc1ccn([C@H]2CC[C@@H](CO)O2)c(=O)n1 [Zalcitabine] | None |  |  | 
Cc1cn([C@H]2C[C@H](N=[N+]=[N-])[C@@H](CO)O2)c(=O)[nH]c1=O [Zidovudine] | None |  |  | 
